Among the data in ChEMBL document CHEMBL5143711, “Glenthmycins A-M: Macrocyclic Spirotetronate Polyketide Antibacterials from the Australian Pasture Plant-Derived Streptomyces sp. CMB-PB041” (J Nat Prod, 2022) are IC50 values, retold here.

In the assay the test system is Mycobacterium tuberculosis variant bovis. Kind of assay: Antibacterial activity against Mycobacterium bovis BCG ATCC 35741 incubated for 16 to 24 hrs by broth microdilution based spectrophotometric analysis. The assay is classed as functional, organism-based. (In general: Broth dilution looks for growth in wells or tubes with falling amounts of substance.)

One may read the IC50 as the point on the concentration scale where inhibition reaches its midpoint. Low values mean inhibition by little substance, high ones a need for much substance. As for `COc1cc(C)c(C(=O)O[C@H]2[C@@H](O)[C@@H](O)[C@H](O[C@H]3CC[C@H](C)[C@@H]4[C@@H]3C=C(C)[C@H]3/C(C)=C/CC/C(C)=C/[C@]5(C)C=C(C(=O)O)[C@H](C)C[C@]56OC(=O)C(=C6O)C(=O)[C@@]43C)O[C@@H]2C)c(O)c1`, the IC50 was above 30 µM. As to `COc1cc(C)c(C(=O)O[C@H]2[C@H](O[C@H]3CC[C@H](C)[C@@H]4[C@@H]3C=C(C)[C@H]3/C(C)=C/CC/C(C)=C/[C@]5(C)C=C(C(=O)O)[C@H](C)C[C@]56OC(=O)C(=C6O)C(=O)[C@@]43C)O[C@H](C)[C@@H](O)[C@H]2O)c(O)c1`, the concentration for half-maximal inhibition (IC50) was above 30 µM. For the compound `CC(=O)O[C@H]1CC[C@H](C)[C@@H]2[C@@H]1C=C(C)[C@H]1/C(C)=C/CC/C(C)=C/[C@]3(C)C=C(C)[C@H](C)C[C@]34OC(=O)C(=C4O)C(=O)[C@@]21C`, the 50% inhibitory concentration (IC50) is above 30 µM.

Regarding `CC1=C[C@@]2(C)/C=C(\C)CC/C=C(\C)[C@@H]3C(C)=C[C@H]4[C@@H]([C@@H](C)CC[C@@H]4O)[C@]3(C)C(=O)C3=C(O)[C@@]2(C[C@H]1C)OC3=O`, the IC50 is above 30 µM.

The compound `COc1cc(C)c(C(=O)O[C@H]2[C@@H](O)[C@H](O[C@H]3CC[C@H](C)[C@@H]4[C@@H]3C=C(C)[C@H]3/C(C)=C/CC/C(C)=C/[C@]5(C)C=C(C(=O)O)[C@H](C)C[C@]56OC(=O)C(=C6O)C(=O)[C@@]43C)O[C@H](C)[C@H]2O)c(O)c1` returned a half-maximal inhibitory concentration (IC50) above 30 µM.

The compound `COc1cc(C)c(C(=O)N[C@@H]2[C@@H](C)O[C@@H](O[C@H]3CC[C@H](C)[C@@H]4[C@@H]3C=C(C)[C@H]3/C(C)=C/CC/C(C)=C/[C@]5(C)C=C(C(=O)O)[C@H](C)C[C@]56OC(=O)C(=C6O)C(=O)[C@@]43C)[C@H](O)[C@]2(C)O)c(O)c1` displayed a concentration for half-maximal inhibition (IC50) above 30 µM. Under `COc1cc(C)c(C(=O)O[C@H]2[C@H](O[C@H]3CC[C@H](C)[C@@H]4[C@@H]3C=C(C)[C@H]3/C(C)=C/CC/C(C)=C/[C@@H]5C=C(C(=O)O)[C@H](C)C[C@]56OC(=O)C(=C6O)C(=O)[C@@]43C)O[C@H](C)[C@@H](O)[C@H]2O)c(O)c1` stands above 30 µM; under `COc1cc(C)c(C(=O)O[C@H]2[C@@H](O)[C@@H](O)[C@H](O[C@H]3CC[C@H](C)[C@@H]4[C@@H]3C=C(C)[C@H]3/C(C)=C/CC/C(C)=C/[C@]5(C)C=C(C(=O)O)[C@H](C)C[C@]56OC(=O)C(=C6O)C(=O)[C@@]43C)O[C@@H]2C)c(OC)c1`, above 30 µM. Compound `COc1cc(C)c(C(=O)N[C@@H]2[C@@H](C)O[C@@H](O[C@H]3CC[C@H](C)[C@@H]4[C@@H]3C=C(C)[C@H]3/C(C)=C/CC/C(C)=C/[C@@H]5C=C(C(=O)O)[C@H](C)C[C@]56OC(=O)C(=C6O)C(=O)[C@@]43C)[C@H](O)[C@]2(C)O)c(O)c1` showed an IC50 above 30 µM. `COc1cc(C)c(C(=O)O[C@H]2[C@@H](O)[C@H](O[C@H]3CC[C@H](C)[C@@H]4[C@@H]3C=C(C)[C@H]3/C(C)=C/CC/C(C)=C/[C@@H]5C=C(C(=O)O)[C@H](C)C[C@]56OC(=O)C(=C6O)C(=O)[C@@]43C)O[C@H](C)[C@H]2O)c(O)c1` displayed a concentration for half-maximal inhibition (IC50) above 30 µM. `COc1cc(C)c(C(=O)O[C@H]2[C@@H](O)[C@@H](O)[C@H](O[C@H]3CC[C@H](C)[C@@H]4[C@@H]3C=C(C)[C@H]3/C(C)=C/CC/C(C)=C/[C@@H]5C=C(C(=O)O)[C@H](C)C[C@]56OC(=O)C(=C6O)C(=O)[C@@]43C)O[C@@H]2C)c(O)c1`: the half-maximal inhibitory concentration (IC50) is above 30 µM.

In turn, `CC(=O)O[C@H]1CC[C@H](C)[C@@H]2[C@@H]1C=C(C)[C@H]1/C(C)=C/CC/C(C)=C/[C@@H]3C=C(C)[C@H](C)C[C@]34OC(=O)C(=C4O)C(=O)[C@@]21C` registered an IC50 above 30 µM.
